For assay [1], the system named is TNFalpha release in human peripheral blood mononuclear cells (PBMC) stimulated with LPS. Briefly: Inhibition of LPS induced TNFalpha release in human PBMCs. Format: cell-based. To be noted: 1 ng/mL LPS, 24 hours, reported as range bins, read-out: Inhibition of LPS induced TNFalpha release in human PBMCs pIC30 (-log IC30). The method, then: Method for Measuring the Inhibition of TNFalpha Release in Human Peripheral Blood MononuClear Cells (PBMC) Stimulated with LPS:
Assay was performed with some modifications of the method described by Hatzelmann and Schudt (Hatzelmann and Schudt 2001, J. Pharmacol. Exp. Therapeutics 297: 267-279) and the protocol “drawing of venous blood from healthy volunteers for in vitro studies” was approved by the ethics committee of the Landesärztekammer Baden Württemberg in Stuttgart. Peripheral blood mononuclear cells (PBMCs) were isolated from venous blood with the anticoagulant citrate from healthy donors according to standard protocols using Ficoll. The cell layer of PBMCs were washed twice with phosphate buffer solution and equilibrated at room temperature for 60 minutes. 500,000 PBMCs in 180 microL RPMI1640 cell medium supplemented with 10% FCS, NEAA (Non-essential-amino-acids), L-Glutamine and Sodium Pyruvate per sample were pre-incubated with 10 microL of a serial dilution of test compound or piclamilast as positive control for 60 min. at 37° C. After pre-incubation blood samples were stimulated by the addition of 10 microL LPS (Sigma, Aldrich) per sample resulting in a final concentration of 1 ng/mL LPS and a final volume of 200 microL. Cells were incubated for 24 hours at 37° C. TNFalpha levels were determined from cell supernatant that was obtained by a centrifugation step and transferring the supernatant to a new 96-well plate. Content of TNFalpha was determined via alphaLISA Technology according to manufacture protocol (Perkin Elmer).
PBMC samples that were not stimulated with LPS were used as control and set for 100% inhibition. PBMC samples that were stimulated with LPS and solvent instead of test compound were set as 0% inhibition. Percent inhibition was calculated based on these controls for each sample and since most compounds achieved saturating maximal inhibition of 60% a pIC30 value was calculated with GraphPad Prism Software.
For the following compounds the inhibitory values of TNFalpha release [determined as −log IC30=pIC30] in human PBMCs between 5.0 and 5.9, between 6.0 and 6.9, between 7.0 and 7.9 and between 8.0 and 9.0 have been determined. The numbers of the compounds correspond to the examples numbers.
Inhibition of LPS Induced TNFalpha Release Assay in Human PBMCs: pIC30

Assay [2] concerns plasma TNFα after i.v. LPS. Briefly: In vivo assay: LPS-induced TNFα release in mice. Details: species or system C57BL/6 mice. To be noted: Mus musculus; p.o. 1 h prior to i.v. LPS 100 μg/kg; plasma TNFα 1 h after LPS. The method, then: In Vivo Assay: LPS-Induced TNFα Release in Mice
Intravenously administration of lipopolysaccharide (LPS) causes a systemic inflammation characterised by release of pro-inflammatory cytokines, e.g. tumor necrosis factor alpha (TNFα). Selective EP2 agonists are administered per oral 1 h prior intravenously LPS challenge in mice. The anti-inflammatory activity of the selective EP2 agonists is assessed based on TNFα levels in blood plasma 1 h after LPS challenge.
Female C57BL/6 mice weighing 20-25 g were used. Mice were delivered 1 week prior to the experiments and had free access to water and food.
The test compound was mixed with 1.33% polyethylenglycol 400 (PEG400, Merck, Darmstadt, Germany) and subsequently suspended in 2% methocel solution (hypromellose, Sigma, Steinheim, Germany) using the Covaris S2X System (K Biosciences Ltd.; Hoddesdon; United Kingdom). The aimed doses were prepared by dilution series from the stock suspension, which was prepared for the administration of the highest dose in each experiment.
The administered volume of the compound suspension is 10 mL/kg. On day of the experiment the mouse body weights were documented to calculate the volume to be administered. LPS challenged control animals received drug-free vehicle solution as placebo. Test compounds and vehicle were administered by oral gavage 1 h prior to LPS challenge.
LPS (from Escherichia coli 055:B5, Sigma, Steinheim, Germany) was solubilised in 0.9% sterile NaCl solution (B. Braun Melsungen AG, Melsungen, Germany) containing 0.1% hydroxylamine (Sigma, Steinheim, Germany). LPS is intravenously (i.v.) injected at a dose of 100 μg/kg (5 mL/kg b.w.) 1 h after compound or vehicle administration.
One hour after LPS-challenge, the animals were sacrificed by inhalative isoflurane anaesthesia and heparinised blood was obtained by retroorbital bleeding. Blood was centrifuged (21,000×g, 4° C., 10 min), and plasma samples were kept frozen at −20° C. until determination of TNFα levels by ELISA. TNFα was measured with a commercially available ELISA-Kit (Quantikine® Immunoassay Mouse TNFα, R&D Systems, Minneapolis, USA).
The compound effect on TNFα release was calculated individually in percent (%) for each compound treated animal in relation to the mean TNFα level of the vehicle treated LPS-challenged control group: % effect=(Y−K)/K*100 • with defining: • Y=plasma TNFα concentration of the compound treated animal • K=mean plasma TNFα concentration of the vehicle treated group
Statistical analysis was performed on the primary TNFα concentrations by One-Way ANOVA and Dunnett's Multiple Comparison test vs. vehicle-treated control group.

With `O=C(O)/C=C/c1cccc(NC(=O)c2cc(-c3ccccc3)cc3ccccc23)c1` [Example 1, (2E)-3-(3-{[(3-phenylnaphthalen-1-yl)carbonyl]amino}phenyl)prop-2-enoic acid], in assay [1], the IC30 (usually the point of the concentration-response curve where the effect stands at 30%) was 1 to 10 nM. In assay [2], the ED50 – broadly, the dose that gives a 50% effect, or the effect in half of the subjects – lay in the range of 0.1 to 3 mg/kg.

`O=C(O)/C=C/c1ccc(F)c(NC(=O)c2cc(-c3ccccc3)cc3ccccc23)c1` [Example 2, (2E)-3-(4-fluoro-3-{[(3-phenylnaphthalen-1-yl)carbonyl]amino}phenyl)prop-2-enoic acid]: the IC30 in assay [1] lay in the range of 1 to 10 nM. Further, the ED50 in assay [2] lay within 0.1 to 3 mg/kg.

With `O=C(O)/C=C/c1ccc(Cl)c(NC(=O)c2cc(-c3ccccc3)cc3ccccc23)c1` [Example 3, (2E)-3-(4-chloro-3-{[(3-phenylnaphthalen-1-yl)carbonyl]amino}phenyl)prop-2-enoic acid], the ED50 in assay [2] lay within 0.1 to 3 mg/kg.

Regarding `O=C(O)/C=C/c1ccc(F)c(NC(=O)c2cc(-c3ccccc3F)cc3ccccc23)c1` [Example 9, (2E)-3-{3-[({3-[2-fluorophenyl]naphthalen-1-yl}carbonyl)amino]-4fluorophenyl}prop-2-enoic acid], in assay [1], the IC30 lay in the range of 12.6 to 100 nM. For the same compound, the ED50 in assay [2] lay in the range of 0.1 to 3 mg/kg.

On to `O=C(O)/C=C/c1ccc(F)c(NC(=O)c2cc(-c3cccc(F)c3)cc3ccccc23)c1` [Example 10, (2E)-3-{3-[({3-[3-fluorophenyl]naphthalen-1-yl}carbonyl)amino]-4fluorophenyl}prop-2-enoic acid], for which the IC30 in assay [1] is 1 to 10 nM. The compound further returned an ED50 in assay [2] of 0.1 to 3 mg/kg.

The values above are taken from patent publication US9309187B2, “EP2 receptor agonists” (TAKEDA GMBH, priority 2012, dated 2016).
